How the values were obtained:
Test in all cases: area under dose-response curve of surviving fraction (unscaled, Aref=0) (surviving fraction x log10(nM)); higher = more resistant
Details in all cases: exposure time: 5 days; dose range 0.5-1000 nM
SOTRASTAURIN/AEB071 = compound: CN1CCN(c2nc(C3=C(c4c[nH]c5ccccc45)C(=O)NC3=O)c3ccccc3n2)CC1 [SOTRASTAURIN/AEB071]
Method in brief: (§1)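 Tumour cell lines in 384-well plates were exposed to eight inhibitor concentrations, from 0.5 to 1000 nM, for five days, and viability was read by CellTiter-Glo luminescence in three screens per line. Signals were normalised to DMSO-only wells, and 3-parameter logistic regression in the drc R package fitted dose-response survival curves to the surviving fractions. Area under the curve is given as the unscaled activity area. That area is taken over log10 dose with Aref = 0.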

CRIZOTINIB = compound: C[C@@H](Oc1cc(-c2cnn(C3CCNCC3)c2)cnc1N)c1c(Cl)ccc(F)c1Cl [CRIZOTINIB]
Method in brief: as §1

ABIRATERONE = compound: C[C@]12CC[C@H](O)CC1=CC[C@@H]1[C@@H]2CC[C@]2(C)C(c3cccnc3)=CC[C@@H]12 [ABIRATERONE]
Method in brief: as §1

[1] = compound: CNCc1ccc(-c2[nH]c3cc(F)cc4c3c2CCNC4=O)cc1
Method in brief: as §1

FORETINIB = compound: COc1cc2c(Oc3ccc(NC(=O)C4(C(=O)Nc5ccc(F)cc5)CC4)cc3F)ccnc2cc1OCCCN1CCOCC1 [FORETINIB]
Method in brief: as §1

TEMOZOLOMIDE = compound: Cn1nnc2c(C(N)=O)ncn2c1=O [TEMOZOLOMIDE]
Method in brief: as §1

XAV-939 = compound: Oc1nc(-c2ccc(C(F)(F)F)cc2)nc2c1CSCC2 [XAV-939]
Method in brief: as §1

MLN-4924 = compound: NS(=O)(=O)OC[C@@H]1C[C@@H](n2ccc3c(N[C@H]4CCc5ccccc54)ncnc32)C[C@@H]1O [MLN-4924]
Method in brief: as §1

DASATINIB = compound: Cc1nc(Nc2ncc(C(=O)Nc3c(C)cccc3Cl)s2)cc(N2CCN(CCO)CC2)n1 [DASATINIB]
Method in brief: as §1

[2] = compound: C[C@@H](Oc1cc(-c2cnn(C3CCNCC3)c2)cnc1N)c1c(Cl)ccc(F)c1Cl
Method in brief: as §1

OLAPARIB = compound: O=C(c1cc(Cc2n[nH]c(=O)c3ccccc23)ccc1F)N1CCN(C(=O)C2CC2)CC1 [OLAPARIB]
Method in brief: as §1

SORAFENIB = compound: CNC(=O)c1cc(Oc2ccc(NC(=O)Nc3ccc(Cl)c(C(F)(F)F)c3)cc2)ccn1 [SORAFENIB]
Method in brief: as §1

[3] = compound: COc1cc2ncnc(Nc3ccc(F)c(Cl)c3)c2cc1NC(=O)/C=C/CN1CCCCC1
Method in brief: as §1

[4] = compound: CCn1c(C(=O)N(C2CC2)C2CC2)cc2c3c(ncn3C)c(Nc3cc(C)n(C)n3)nc21
Method in brief: as §1

Test System	area under dose-response curve (SOTRASTAURIN/AEB071)	area under dose-response curve (CRIZOTINIB)	area under dose-response curve (ABIRATERONE)	area under dose-response curve [1]	area under dose-response curve (FORETINIB)	area under dose-response curve (TEMOZOLOMIDE)	area under dose-response curve (XAV-939)	area under dose-response curve (MLN-4924)	area under dose-response curve (DASATINIB)	area under dose-response curve [2]	area under dose-response curve (OLAPARIB)	area under dose-response curve (SORAFENIB)	area under dose-response curve [3]	area under dose-response curve [4]
S68 BREAST	3.45	2.72	3.31	2.67	2.65	3.53	3.19	2.21	1.44	2.76	2.85	3.49	2.49	–
CASKI CERVIX	3.1	2.83	–	3.04	2.87	3.19	3.25	2.18	1.2	2.58	2.98	–	1.19	3.21
HT1080 SOFT TISSUE	3.53	3.28	3.37	3.02	3.13	3.41	2.94	2.52	2.37	3.25	2.92	3.4	3.22	3.3
KPD BONE	3.41	3.08	3.4	3.18	3.08	3.35	3.17	2.61	2.1	2.95	3.12	3.2	3.13	3.28
SNU475 LIVER	3.15	3.26	3.42	3.13	3.18	3.4	3.07	3.13	1.64	2.77	3.11	3.6	2.94	3.18
VCAP PROSTATE	3.27	3.04	3.72	3.23	3.06	3.44	3.13	2.21	3.15	2.88	3.59	3.73	3.12	3.54
H23 LUNG	3.58	3.48	3.65	3.63	3.19	3.33	2.94	2.48	2.14	3.24	3.67	3.89	1.51	3.2
SUM149 BREAST	2.96	3.15	3.16	2.39	2.82	3.57	2.66	2.38	1.49	2.99	2.46	3.9	2.13	3.48
A549 LUNG	–	3.27	3.53	3.56	3.13	3.43	3.48	3.14	2.72	3.25	3.48	3.44	3.32	3.2
LM7 BONE	3.08	3.05	3.33	2.67	3.1	3.38	3.45	2.09	1.58	2.6	2.84	3.39	2.98	3.31
MDAMB361 BREAST	2.21	2.86	–	2.1	2.98	3.06	3.04	2.48	2.45	2.88	2.26	2.79	2.58	2.83
SYO1 SYNOVIAL	3.01	2.71	3.32	2.25	2.43	3.18	3.01	2.1	1.7	2.44	2.48	3.06	3.02	3.06
SG43 HEADNECK	3.54	2.8	3.37	3.46	2.45	2.97	2.88	–	1.64	2.88	3.28	4.26	1.38	2.97
MCF7 BREAST	3.11	3.04	3.3	3.04	2.96	3.08	3.19	2.24	2.56	2.71	3.07	2.97	3.16	2.83
HELA CERVIX	3.56	3.42	3.73	3.62	3.06	3.6	3.57	3.35	3.16	3.13	3.66	3.38	3.73	3.32
22RV1 PROSTATE	3.61	3.17	3.62	3.57	3.05	3.54	3.34	2.3	–	3	3.41	3.42	–	3.4
CAL51 BREAST	3.16	2.87	3.32	2.78	2.75	3.41	3.24	2.56	1.95	2.77	2.99	3.36	3.29	3.3
HSSYII SYNOVIAL	2.99	2.85	3.22	2.44	2.59	3.23	3.04	1.85	2.17	2.49	2.67	3.17	3	3.02
